Reference: patent US6750348B1, “Chemokine receptor binding heterocyclic compounds” (AnorMED, Inc., priority 1999, dated 2004)
Where two headings read alike, the source gives them in different places.

System: HIV-1 NL4.3 or IIIB
Experiment: Inhibition of HIV-1 (NL4.3 or IIIB) replication in MT-4 cells (MTT)
Type: cell-based
Settings: Human immunodeficiency virus 1, IIIB
Protocol: Compounds were tested for their ability to inhibit HIV-1 replication in MT-4 cells or PBMC's (peripheral blood mononucleocytes) using published procedures (for example, see: Labrosse et al. J. Virol. 1998, 6381-6388; Simmons et al. J. Virol. 1998, 8453-8457; Donzella et al. Nature Medicine 1998, 72-77; Schols et al. J. Exp. Med. 1997, 1383-1388; De Clercq et al. Antiviral Res. 1997, 147-156; and Bridger et al. U.S. patent application Ser. No. 09/111,895). In addition to the above references, experimental methods for performing anti-viral assays can also be found in: Bridger et al. J. Med. Chem. 1995, 38, 366-378; Bridger et al. J. Med. Chem. 1996, 39, 109-119; Bridger et al. U.S. Pat. No. 5,698,546; Bridger et al. U.S. Pat. No. 5,583,131; Bridger et al. U.S. Pat. No. 5,817,807; De Clercq et al. Antimicrob. Agents and Chemother. 1994, 38, 668-674.
1. The HIV-1 strains NL4.3 and IIIB are T-tropic strains that exclusively use CXCR4 as the co-receptor for entry into cells. MT-4 Cells express CXCR4 but not CCR5.
Inhibition of HIV-1 NL4.3 (or IIIB) replication assays were performed as previously described (Bridger et al. J. Med. Chem. 1999, 42, 3971-3981; De Clercq et al. Proc. Natl. Acad. Sci, 1992, 89, 5286-5290; De Clercq et al. Antimicrob. Agents Chemother. 1994, 38, 668-674; Bridger et al. J. Med. Chem. 1995, 38, 366-378). Anti-HIV activity and cytotoxicity measurements were carried out in parallel. They were based on the viability of MT-4 cells that had been infected with HIV in the presence of various concentrations of the test compounds. After the MT-4 cells were allowed to proliferate for 5 days, the number of viable cells was quantified by a tetrazolium-based calorimetric 3-(4,5-dimethylthiazol-2-yl)-2,5-diphenyltetrazolium bromide (MTT) procedure in 96-well microtrays. In all of these assays, viral input (viral multiplicity of infection, MOI) was 0.01, or 100 times the 50% cell culture infective dose (CCID50). The EC50 was defined as the concentration required to protect 50% of the virus-infected cells against viral cytopathicity.

[1] = MT4, read-out: EC50, inhibition of HIV-1 NLA.3 or IIIB replication
[2] = MT4, read-out: EC50, inhibition of HIV-1 NL4.3 or IIIB replication

| EC50 [1] | EC50 [2] | Structure (SMILES) |
| --- | --- | --- |
| < 20 µM |  | Fc1cccc(F)c1CN(Cc1ccc(CNCc2ccccn2)cc1)C1CCCc2cccnc21 (stereo not drawn) [Example 125, N-[(2,6-difluorophenyl)methyl]-N′-(2-pyridinylmethyl)-N-(5,6,7,8-tetrahydro-8-quinolinyl)-1,4-benzenedimethanamine] |
| < 20 µM |  | c1ccc(CNCc2ccc(CN(Cc3ccc4ccccc4n3)C3CCCCc4cccnc43)cc2)nc1 (stereo not drawn) [Example 158, N-(2-quinolylmethyl)-N′-(2-pyridinylmethyl)-N-(6,7,8,9-tetrahydro-5H-cyclohepta[b]pyridin-9-yl)-1,4-benzenedimethanamine] |
| < 20 µM |  | Oc1ccccc1CN(Cc1ccc(CNCc2ccccn2)cc1)C1CCCc2cccnc21 (stereo not drawn) [Example 139, N-[(2-hydroxyphenyl)methyl]-N′-(2-pyridinylmethyl)-N-(5,6,7,8-tetrahydro-8-quinolinyl)-1,4-benzenedimethanamine] |
| < 20 µM |  | COc1cccc(CN(Cc2ccc(CNCc3ccccn3)cc2)C2CCCc3cccnc32)c1OC (stereo not drawn) [Example 95, N-[(2,3-dimethoxyphenyl)methyl]-N′-(2-pyridinylmethyl)-N-(5,6,7,8-tetrahydro-8-quinolinyl)-1,4-benzenedimethanamine] |
| < 20 µM |  | c1ccc(COc2ccc(CN(Cc3ccc(CNCc4ccccn4)cc3)C3CCCCc4cccnc43)cc2)cc1 (stereo not drawn) [Example 105, N-[(4-benzyloxyphenyl)methyl]-N′-(2-pyridinylmethyl)-N-(6,7,8,9-tetrahydro-5H-cyclohepta[b]pyridin-9-yl)-1,4-benzenedimethanamine] |
|  | < 20 µg/mL | c1ccc(CNCc2ccc(CN(Cc3nc4ccccc4[nH]3)C3CCCc4cccnc43)cc2)nc1 (stereo not drawn) [Example 61, N-(2-pyridinylmethyl)-N′-(1H-benzimidazol-2-ylmethyl)-N′-(5,6,7,8-tetrahydro-8-quinolinyl)-1,4-benzenedimethanamine] |
|  | < 20 µg/mL | O=C(NCCN(Cc1ccc(CNCc2ccccn2)cc1)C1CCCc2cccnc21)c1ccc2ccccc2c1 (stereo not drawn) [Example 19, N-(2-pyridinylmethyl)-N′-(2-(2-naphthoyl)aminoethyl)-N′-(5,6,7,8-tetrahydro-8-quinolinyl)-1,4-benzenedimethanamine] |
| < 20 µM |  | N#Cc1cccc(CN(Cc2ccc(CNCc3ccccn3)cc2)C2CCCc3cccnc32)c1 (stereo not drawn) [Example 121, N-[(3-cyanophenyl)methyl]-N′-(2-pyridinylmethyl)-N-(5,6,7,8-tetrahydro-8-quinolinyl)-1,4-benzenedimethanamine] |
| < 20 µM |  | CCc1ccc(CN(Cc2ccc(CNCc3ccccn3)cc2)C2CCCc3cccnc32)s1 (stereo not drawn) [Example 123, N-(5-ethylthiophene-2-ylmethyl)-N′-(2-pyridinylmethyl)-N-(5,6,7,8-tetrahydro-8-quinolinyl)-1,4-benzenedimethanamine] |
| < 20 µM |  | c1ccc(Oc2ccc(CN(Cc3ccc(CNCc4ccccn4)cc3)C3CCCCc4cccnc43)cc2)cc1 (stereo not drawn) [Example 103, N-[(4-phenoxyphenyl)methyl]-N′-(2-pyridinylmethyl)-N-(6,7,8,9-tetrahydro-5H-cyclohepta[b]pyridin-9-yl)-1,4-benzenedimethanamine] |
| < 20 µM |  | Oc1cccc2ccc(CN(Cc3ccc(CNCc4ccccn4)cc3)C3CCCCc4cccnc43)nc12 (stereo not drawn) [Example 157, N-[(8-hydroxy)-2-quinolylmethyl]-N′-(2-pyridinylmethyl)-N-(6,7,8,9-tetrahydro-5H-cyclohepta[b]pyridin-9-yl)-1,4-benzenedimethanamine] |
| < 20 µM |  | Fc1ccc(CN(Cc2ccc(CNCc3ccccn3)cc2)C2CCCc3cccnc32)c(F)c1 (stereo not drawn) [Example 137, N-[(2,4-difluorophenyl)methyl]-N′-(2-pyridinylmethyl)-N-(5,6,7,8-tetrahydro-8-quinolinyl)-1,4-benzenedimethanamine] |
|  | < 20 µg/mL | c1ccc(CNCc2ccc(CNC3CCCc4cccnc43)cc2)nc1 (stereo not drawn) [Example 2, N-(2-pyridinylmethyl)-N′-(5,6,7,8-tetrahydro-8-quinolinyl)-1,4-benzenedimethanamine] |
| < 20 µM |  | COc1cc(CN(Cc2ccc(CNCc3ccccn3)cc2)C2CCCc3cccnc32)cc2c1OCO2 (stereo not drawn) [Example 140, N-[(3-methoxy-4,5-methylenedioxyphenyl)methyl]-N′-(2-pyridinylmethyl)-N-(5,6,7,8-tetrahydro-8-quinolinyl)-1,4-benzenedimethanamine] |
|  | < 20 µg/mL | c1ccc(CNCc2ccc(CNC3CCc4cccnc43)cc2)nc1 (stereo not drawn) [Example 3, N-(2-pyridinylmethyl)-N′-(6,7-dihydro-5H-cyclopenta[b]pyridin-7-yl)-1,4-benzenedimethanamine] |
| < 20 µM |  | FC(F)Oc1ccccc1CN(Cc1ccc(CNCc2ccccn2)cc1)C1CCCCc2cccnc21 (stereo not drawn) [Example 126, N-[(2-difluoromethoxyphenyl)methyl]-N′-(2-pyridinylmethyl)-N-(6,7,8,9-tetrahydro-5H-cyclohepta[b]pyridin-9-yl)-1,4-benzenedimethanamine] |
| < 20 µM |  | Cn1cccc1CN(Cc1ccc(CNCc2ccccn2)cc1)C1CCCc2cccnc21 (stereo not drawn) [Example 138, N-(1-methylpyrrol-2-ylmethyl)-N′-(2-pyridinylmethyl)-N-(5,6,7,8-tetrahydro-8-quinolinyl)-1,4-benzenedimethanamine] |
| < 20 µM |  | CC(=O)Nc1ccc(CN(Cc2ccc(CNCc3ccccn3)cc2)C2CCCc3cccnc32)cc1 (stereo not drawn) [Example 102, N-[(4-acetamidophenyl)methyl]-N′-(2-pyridinylmethyl)-N-(5,6,7,8-tetrahydro-8-quinolinyl)-1,4-benzenedimethanamine] |
| < 20 µM |  | c1ccc(CNCc2ccc(CN(Cc3cccnc3)C3CCCc4cccnc43)cc2)nc1 (stereo not drawn) [Example 141, N-(3-pyridinylmethyl)-N′-(2-pyridinylmethyl)-N-(5,6,7,8-tetrahydro-8-quinolinyl)-1,4-benzenedimethanamine] |
|  | < 20 µg/mL | c1ccc(CNCc2ccc(CNC3CCCCc4cccnc43)cc2)nc1 (stereo not drawn) [Example 1, N-(2-pyridinylmethyl)-N′-(6,7,8,9-tetrahydro-5H-cyclohepta[b]pyridin-9-yl)-1,4-benzenedimethanamine] |
| < 20 µM |  | COc1cc(CN(Cc2ccc(CNCc3ccccn3)cc2)C2CCCCc3cccnc32)cc2c1OCO2 (stereo not drawn) [Example 119, N-[(3-methoxy-4,5-methylenedioxyphenyl)methyl]-N′-(2-pyridinylmethyl)-N-(6,7,8,9-tetrahydro-5H-cyclohepta[b]pyridin-9-yl)-1,4-benzenedimethanamine] |
| < 20 µM |  | N#Cc1ccc(CN(Cc2ccc(CNCc3ccccn3)cc2)C2CCCc3cccnc32)cc1 (stereo not drawn) [Example 101, N-[(4-cyanophenyl)methyl]-N′-(2-pyridinylmethyl)-N-(5,6,7,8-tetrahydro-8-quinolinyl)-1,4-benzenedimethanamine] |
| < 20 µM |  | Cn1c(CN(Cc2ccc(CNCc3ccccn3)cc2)C2CCCc3cccnc32)nc2ccccc21 (stereo not drawn) [Example 144, N-(1-methylbenzimidazol-2-ylmethyl)-N′-(2-pyridinylmethyl)-N-(5,6,7,8-tetrahydro-8-quinolinyl)-1,4-benzenedimethanamine] |
| < 20 µM |  | CCCOc1ccc(CN(Cc2ccc(CNCc3ccccn3)cc2)C2CCCCc3cccnc32)cc1 (stereo not drawn) [Example 116, N-[(4-propoxyphenyl)methyl]-N′-(2-pyridinylmethyl)-N-(6,7,8,9-tetrahydro-5H-cyclohepta[b]pyridin-9-yl)-1,4-benzenedimethanamine] |
| < 20 µM |  | c1ccc(CNCc2ccc(CN(Cc3ccc4c(c3)OCO4)C3CCCc4cccnc43)cc2)nc1 (stereo not drawn) [Example 112, N-[(3,4-methylenedioxyphenyl)methyl]-N′-(2-pyridinylmethyl)-N-(5,6,7,8-tetrahydro-8-quinolinyl)-1,4-benzenedimethanamine] |
|  | < 20 µg/mL | c1ccc(CCN(Cc2ccc(CNCc3ccccn3)cc2)C2CCCc3cccnc32)cc1 (stereo not drawn) [Example 69, N-(2-pyridinylmethyl)-N′-(2-phenylethyl)-N′-(5,6,7,8-tetrahydro-8-quinolinyl)-1,4-benzenedimethanamine] |
|  | < 20 µg/mL | c1ccc(CCCN(Cc2ccc(CNCc3ccccn3)cc2)C2CCCc3cccnc32)cc1 (stereo not drawn) [Example 70, N-(2-pyridinylmethyl)-N′-(3-phenylpropyl)-N′-(5,6,7,8-tetrahydro-8-quinolinyl)-1,4-benzenedimethanamine] |
